This is an account of results in patent US6692754B1, “Cosmetic composition” (Kyowa Hakko Kogyo Co., Ltd., priority 1999, dated 2004).

The test system of one experiment is mouse epidermal cells. Kind of experiment: Mouse epidermal cell proliferation activity (MTT). As to conditions: for Epidermal Cell Proliferation Activity: 6 days, 0 μM = 100. In kind it is cell-based, C3H mouse. The method, then: Epidermis was peeled from 3 days old C3H mouse according to Method of Tanigaki, et al., [The Japanese Journal of Dermatology, 1145-1152 (1989)].
The epidermis was treated with 0.25% trypsin and centrifuged at 1500 rpm for 5 minutes to obtain the cells. The cells were inoculated onto DMEM medium containing 10% fetal bovine serum and cultivated at 37° C. for 1 day to give the mouse epidermal cells.
The mouse epidermal cells were cultivated on MCDB 153 medium free of serum containing the test compound (Hyp or N-Acetyl-Hyp) for 6 days, mixed with 1/10 volume of 5 mg/ml MTT reagent in phosphate buffer (pH 7.4, free of calcium and magnesium), and then cultivated in an atmosphere of 5% CO2 at 37° C. for 4 hours. After removing the medium, MTT formazan in the cell was extracted with isopropanol containing 0.4 mol/L hydrochloric acid, and the absorbance at 570 nm was measured in comparison with that of 630 nm.

The test system of experiment [1] is Fibroblast derived from human neonate. Kind of experiment: Collagen synthesis promotion activity in human fibroblast (3H-glycine incorporation, collagenase digestion). Particulars: for Collagen Synthetic Promotion Activity: 72 hours, relative to control (0 mM = 100); for Collagen synthetic promotion activity (in words): human fibroblast. In kind it is cell-based. The protocol:
Assay of synthetic collagen was conducted by the following method according to “Experimental Method of Collagen” (Written by Nagai, et al., Kodansha Scientific).
Fibroblast derived from human neonate (Sanko Junyaku Co., Ltd.) was cultivated in DMEM medium [Virology, 8, 396 (1959)] containing 10% fetal bovine serum under conditions of 5% CO2 at 37° C. by the stationary phase. ^3H marked glycine and a test compound was added thereto, and further cultivated for 72 hours. DMEM medium was prepared by mixing Dulbecco's Modified Eagle's Medium “Nissui” (2) (manufactured by Nissui Pharmaceutical) with 4 mmol/L glutamine, an optimum dose of sodium hydrogencarbonate, 10 mmol/L HEPES, 50 U/ml penicillin G potassium, 50 μg/ml streptomycin and 10% fetal bovine serum.
To the resultant culture broth was added 500 μmol/L phenylmethanesulfonyl fluoride (PMSF), and the cells and medium were recovered, crashed with a sonicater and the protein was extracted.
To the extract were added 100 μmol/L bovine serum albumin (BSA) and 10% trichloroacetic acid (TCA), and the resultant mixture was centrifuged at 3000 rpm for 5 minutes to recover the precipitate.
To the precipitate was added 0.2 mol/L sodium hydroxide at a density of 8 μl per 1 cm^2 of the bottom area of culture vessel used for said cultivation, and the resultant mixture was neutralized with an equivalent amount of 1 mol/L phosphate buffer.
To 100 μl of the resultant protein solution were added 25 mmol/L calcium chloride (10 μmol/L), 62.5 mmol/L N-ethylmaleimide (20 μmol/L) and 20 units of collagenase (manufactured by Wako Pure Chemical Industries, Ltd.; for analyzing the collagen), and the resultant mixture was allowed to react at 37° C. for 90 minutes.
The reaction mixture was filtered with an ultrafilter (molecular weight: 10,000), and the protein fraction of the filtrate was subjected to radiation activity (CDP) assay, which was assigned as freshly prepared collagen. The radiation activity (NCDP) of the non-filtered protein fraction was assayed, and collagen synthetic ratio was calculated according to the following formula 1.
Relative collagen synthetic promotion activity (change in the collagen synthesis) was calculated according to the following formula 2, comparing with the relative value of the collagen synthetic ratio of the test compounds against control. [formula] [formula]

The test system of experiment [2] is epidermal keratinized cells derived from human neonate. Kind of experiment: Human epidermal cell proliferation activity (MTT method). In kind it is cell-based. As to conditions: for Epidermal Cell Proliferation Activity: 4 days, 0 mM = 100. The method, then: The human epidermal cell proliferation activity was assayed according to MTT method [Cell Culture III, 4477-4482 (1984)] by incorporating 3-(4,5-dimethylthiazol-2-yl)-2,5-diphenyltetrazolium bromide (MTT) into cells and measuring the resultant MTT formazan by colorimetry at the wave length of 570 nm (Reference, 650 nm).
That is, epidermal keratinized cells derived from human neonate (Sanko Junyaku Co., Ltd.) was cultivated in KGM medium (Sanko Junyaku Co., Ltd.) in an atmosphere of 5% CO2 at 37° C. by the stationary phase, mixed with Hyp and N-Acetyl-Hyp and cultivated for 4 days. Then, the culture broth was mixed with 1/10 volume of 5 mg/ml MTT reagent in a phosphate buffer (pH 7.4, free of calcium and magnesium), and cultivated in an atmosphere of 5% CO2 at 37° C. for 4 hours. After removing the medium, MTT formazan in the cell was extracted with isopropanol containing 0.4 mol/L hydrochloric acid, and the absorbance at 570 nm was measured in comparison with that of 630 nm.
On the technique in general: Formazan colour is commonly taken as a measure of viable cells.

The test system of experiment [3] is skin of cubital fossa of healthy female panelists. The experiment is described as follows: Evaluation of moisture retention function (1): continuous application, skin conductivity (SKICON-200). It counts as in vivo, human. The method, then: Change in the moisture retention function by continuous use was examined for the evaluation of the skin quality-improving effect of Compositions (1)-(8) prepared in Examples 1-8. The compositions are applied to the test part/cubital fossa of 4 healthy female panelists in 23-28 years old in an amount of 2 μl/cm^2 twice a day in the morning and evening for 3 weeks or 2 months. Moisture content in the test part before the application of the cosmetic composition was measured in the morning with the elapse of time. The probe was contacted vertically on the test part, and the skin conductivity (=moisture content) was assayed with SKICON-200 (manufactured by IBS) as a measuring machine. When the measured value is high, it means that the moisture content is high. Change in the skin conductivity (relative conductivity) on the test part was calculated according to the following formula 3, as a relative value to the change in the conductivity on the non-treated part. [formula]

Experiment [4] has the same test system. Kind of experiment: Evaluation of moisture retention function (2): single application, skin conductivity. It counts as in vivo, human. The method, then: Concentration dependency on moisture retention effect of N-Acetyl-Hyp was evaluated by the single application. The moisture retention was assayed on the test part/cubital fossa of 12 healthy female panelists in 23-32 years old, and each of the test compositions was applied thereto in an amount of 2 μl/cm^2 and allowed to leave. Three hours later, the moisture content of the test part was measured, and the moisture retention effect was evaluated in terms of the relative conductivity when the moisture content before the application was defined as 100%.

As for `O=C(O)[C@@H]1C[C@@H](O)CN1` [Hyp, trans-4-hydroxy-L-proline], the “Epidermal proliferation activity (in words)” value in the experiment on mouse epidermal cells is “found”. In addition, the “Epidermal Cell Proliferation Activity” value was 88.6 in the experiment on mouse epidermal cells (1 μM); 107.5 in the experiment on mouse epidermal cells (3 μM); 126 with mouse epidermal cells (10 μM); 111.6 in experiment [2] (10 mM); 135.1 in experiment [2] (100 mM). Further, the “Collagen Synthetic Promotion Activity” value in experiment [1] (0.1 mM test compound) was 108.3; in experiment [1] (1 mM test compound) it was 117.1. In experiment [1], the “Collagen synthetic promotion activity (in words)” value was “observed”. The “Concentration dependence of proliferation activity” value in experiment [2] is reported as “Proliferation activity depending on the concentration was found”. In addition, the “Epidermal cells proliferation activity (in words)” value in experiment [2] is given as “observed”. Besides, the “Skin moisture content / moisture retention function on continuous application (in words)” value in experiment [3] is on record as “an improvement in the moisture retention function was observed”.
`CC(=O)N1C[C@H](O)C[C@H]1C(=O)O` [N-Acetyl-Hyp, N-acetyl-trans-4-hydroxy-L-proline]: in the experiment with mouse epidermal cells, the “Epidermal proliferation activity (in words)” value was “found”. For the same compound, the “Epidermal Cell Proliferation Activity” value in the experiment on mouse epidermal cells (1 μM) was determined as 110.7; with mouse epidermal cells (3 μM), 118.2; with mouse epidermal cells (10 μM) it was 121.9; in experiment [2] (10 mM), 108.7; in experiment [2] (100 mM), 85.9. The “Collagen Synthetic Promotion Activity” value in experiment [1] (0.1 mM test compound) amounted to 121.1; in experiment [1] (1 mM test compound), 119.7. Further, the “Collagen synthetic promotion activity (in words)” value in experiment [1] is recorded as “observed”. Moreover, the “Relative Conductivity” value was found to be 100% in experiment [4] (1% N-Acetyl-Hyp, single application 2 μl/cm2, three hours later, before application = 100%); 129% in experiment [4] (3% N-Acetyl-Hyp, single application, three hours later); 186% in experiment [4] (5% N-Acetyl-Hyp, single application, three hours later); 189% in experiment [4] (10% N-Acetyl-Hyp, single application, three hours later). In experiment [4] (single treatment), the “Moisture retention effect by single treatment (in words)” value is listed as “concentration dependent-moisture retention effect”. The “Epidermal cells proliferation activity (in words)” value in experiment [2] is reported as “observed”. Besides, the “Moisture retention improving effect compared with collagen” value in experiment [3] is on record as “an improving effect exceeding that of collagen was observed”. For the same compound, the “Skin moisture content / moisture retention function on continuous application (in words)” value in experiment [3] is reported as “an improvement in the moisture retention function was observed”.
